1 compound from paper PMC6686011, “Ruthenium(II) complexes with 6-methyl-2-thiouracil selectively reduce cell proliferation, cause DNA double-strand break and trigger caspase-mediated apoptosis through JNK/p38 pathways in human acute promyelocytic leukemia cells” (Scientific Reports, 2019) can be followed below.

Structures are written as SMILES. pIC50: −log10 of the molar value.

Series [1] can be described thus: Toxicological evaluation in xenograft mice. Format: in vivo, C.B-17 SCID mice. The following applies: doxorubicin 0.1 mg/kg. On the procedure: To assess toxicological aspects, mice were weighed at the beginning and at the end of the experiment as described previously by Rodrigues et al.[26]. […] Hematological analysis was performed using the Advia 60 hematology system (Bayer, Leverkusen, Germany). Livers, kidneys, lungs and hearts were removed, weighed and examined for any signs of macroscopic lesions, color changes and/or hemorrhages. After macroscopic examination, tumors, livers, kidneys, lungs and hearts were fixed in 4% formalin buffer and embedded in paraffin. Tissue sections were stained with hematoxylin/eosin staining, and a pathologist performed the histological analyses under optical microscopy.

The subject of series [2] is PBMC (human peripheral blood mononuclear cells). Nature of the series: Cytotoxicity, alamar blue assay. Particulars: Homo sapiens, PBMC, non-cancer cells, 72 h, read-out: IC50 and 95% CI, PBMC. Format: cell-based. The text has this:
HL-60 (human acute promyelocytic leukemia), K-562 (human chronic myelogenous leukemia), HCT116 (human colon carcinoma), HepG2 (human hepatocellular carcinoma), HSC-3 (human oral squamous cell carcinoma), SCC-9 (human oral squamous cell carcinoma), B16-F10 (mouse melanoma), MRC-5 (human lung fibroblast), WT SV40 MEF (wild-type immortalized mouse embryonic fibroblast) and BAD KO SV40 MEF (BAD gene knockout immortalized mouse embryonic fibroblast) cell lines were obtained from American Type Culture Collection (ATCC, Manassas, VA, USA). Human peripheral blood mononuclear cells (PBMC) were isolated using standard Ficoll density gradient from heparinized blood collected from 20- to 35-year-old, non-smoker healthy donors with informed consent (number 031019/2013) approved by Human Ethics Committee of Gonçalo Moniz Institute from Oswaldo Cruz Foundation (IGM-FIOCRUZ/BA), and all experiments were performed in accordance with relevant guidelines and regulations. Cells were cultured as recommended by ATCC guidelines and a mycoplasma stain kit (Sigma-Aldrich) was used to validate the use of cells free from contamination. Cell viability in all experiments was examined using the trypan blue exclusion (TBE) assay. Over 90% of the cells were viable at the beginning of the culture.
(§1) Cytotoxicity was measured using alamar blue assay and was performed following the procedure that was described previously[21],[22]. Briefly, cells were inserted in 96-well plates and incubated overnight. Then, the complexes were dissolved in dimethyl sulfoxide (DMSO, LGC Biotechnology, São Paulo, SP, Brazil) and added to each well and incubated for 72 h. […] Before the end of treatment (4 h for cell lines and 24 h for PBMC), 20 μL of a stock solution (0.312 mg/mL) of alamar blue (resazurin, Sigma-Aldrich Co.) were added to each well. Absorbance at 570 nm and 600 nm was measured using SpectraMax 190 Microplate Reader (Molecular Devices, Sunnyvale, CA, USA).
(Resazurin is reduced to fluorescent resorufin, in cell work by metabolically active cells.)

Series [3] deals with HL-60 cells. Nature of the series: Apoptosis quantification, annexin V-FITC/PI flow cytometry. It counts as cell-based, human. As for the experimental part:
Shortly, cells were washed twice with saline solution and resuspended in 100 μL of binding buffer plus 5 μL of propidium iodide (PI) and 5 μL of FITC Annexin V. Then, cells were gently mixed by vortexing and incubated for 15 min at room temperature in the dark. Finally, 400 μL of binding buffer was added to each tube, and the cell fluorescence was determined by flow cytometry, as described above. Percentage of viable, early apoptotic, late apoptotic and necrotic cells were measured. […] Cells were then analyzed by FITC Annexin V Apoptosis Detection assay as described above.
On the technique in general: Flow cytometry measures light scatter and fluorescence of single cells or particles in a stream.

Series [4] has as its system HL-60 cells. Nature of the series: Morphological analysis (May-Grunwald-Giemsa staining, light scattering). It counts as cell-based, human. Particulars: HL-60, 12 and 24 h; DOX 1 µM. As for the experimental part:
To cell morphology evaluation, slides were prepared using cytospin and stained with May-Grunwald-Giemsa. Morphological changes were assessed by light microscopy (Olympus BX41, Tokyo, Japan) using Image-Pro software (Media Cybernetics, Inc. Silver Spring, USA). Light scattering features were determined by flow cytometry. At least 10^4 events were recorded per sample using a BD LSRFortessa cytometer along with BD FACSDiva Software (BD Biosciences, San Jose, CA, USA) and Flowjo Software 10 (Flowjo LCC, Ashland, OR, USA). Cellular debris was omitted from the analysis.

Series [5] relates to HL-60 cells. Nature of the series: Trypan blue exclusion assay. Format: cell-based, human. Particulars: HL-60, 24 h, 1 μM. On the procedure: The number of viable cells and non-viable (take up trypan blue) were counted by TBE method. Shortly, 90 μL was removed from the cell suspension and 10 μL of trypan blue (0.4%) was added. Cell counting was performed using a light microscope with a neubauer chamber.

Series [6] has as its system HL-60 cell xenografts. Kind of series: Human myeloid leukemia xenograft model. Format: in vivo, C.B-17 SCID mice. The following applies: 0.1 mg/kg intraperitoneal once a day for 13 consecutive days. On the procedure: Fifty six specific-pathogen-free (SPF) C.B-17 severe combined immunodeficient (SCID) mice (females, 23–26 g) were used in this study. The animals were obtained and maintained at animal facilities from Gonçalo Moniz Institute-FIOCRUZ (Salvador, Bahia, Brazil), and housed in cages with free access to food and water, and kept under a 12:12 h light-dark cycle (lights on at 6:00 a.m.). The animals were treated according to ethical principles for animal experimentation of SBCAL (Brazilian Association of Laboratory Animal Science), Brazil. Experimental protocol have been approved (number 06/2015) by Animal Ethics Committee of Gonçalo Moniz Institute-FIOCRUZ (Salvador, Bahia, Brazil).
Human myeloid leukemia xenograft model was carry out as described previously by Rodrigues et al.[26] with minor modifications. HL-60 cells (2.5 × 10^7 cells/500 µL) were implanted subcutaneously into the left front armpit of the mice. […] When the tumors reached 100 to 200 mm^3 (22 days after HL-60 cells injection), the animals were treated through the intraperitoneal route (200 µL per animal) once a day for 13 consecutive days. One day after the end of the treatment, the animals were anesthetized, and peripheral blood samples were collected from brachial artery. Animals were euthanized by anesthetic overdose, and tumors were excised and weighed.

In series [7] the test system is SCC-4 (human oral squamous cell carcinoma). Kind of series: Cytotoxicity, alamar blue assay. It counts as cell-based. Particulars: Homo sapiens, SCC-4; alamar blue, 72 h; read-out: IC50 and 95% CI, SCC-4. As for the experimental part: as §1
Series [8] concerns BAD KO SV40 MEF (immortalized mouse embryonic fibroblast with the BAD gene knocked out). Kind of series: Cytotoxicity, alamar blue assay. Format: cell-based. The following applies: Mus musculus, MEF, 72 h, read-out: IC50, BAD KO SV40 MEF cell line. As for the experimental part: as §1
For series [9], the system named is HL-60 (human acute promyelocytic leukemia). Nature of the series: Cytotoxicity, alamar blue assay. The following applies: Homo sapiens, HL-60; alamar blue, 72 h; read-out: IC50 and 95% CI, HL-60. Format: cell-based. As for the experimental part: as §1
The test system of series [10] is WT SV40 MEF (wild-type immortalized mouse embryonic fibroblasts). Kind of series: Cytotoxicity, alamar blue assay. Format: cell-based. Particulars: Mus musculus, MEF, 72 h, read-out: IC50, WT SV40 MEF cell line. On the procedure:
as §1

Series [11] deals with HL-60 cells. Nature of the series: Mitochondrial transmembrane potential, rhodamine 123. It counts as cell-based, human. Particulars: HL-60, 24 h; DOX 1 µM. On the procedure:
Mitochondrial transmembrane potential was determined by retention of dye rhodamine 123 as described previously. Briefly, cells were incubated with rhodamine 123 (5 μg/mL, Sigma-Aldrich Co.) at room temperature for 15 min in dark and washed with saline solution. Cells were incubated again in saline solution for more 30 min in dark and cell fluorescence was determined by flow cytometry as described above.

Take `COc1cccc2c1C(=O)c1c(O)c3c(c(O)c1C2=O)C[C@@](O)(C(=O)CO)C[C@@H]3O[C@H]1C[C@H](N)[C@H](O)[C@H](C)O1` [doxorubicin, reference compound]: the Kidney histopathology result in series [1] (complex 1 20 and 40 mg/kg) is reported as “Coagulation necrosis was observed in renal tubules”. In addition, in series [1] (complex 1 20 and 40 mg/kg), the Lung histopathology result is “tumor nodules were observed only in one animal”. In addition, in series [1] (mice bearing HL-60 cells, 13 days), the Body weight entry is “decreased body weight”. In addition, the pIC50 – broadly, the negative decadic logarithm of the IC50, by convention in mol/L – in series [2] is 5.29; in series [7] it was 5.84; in series [8], 6.39; in series [9], 7.70; in [10] it was 7.40. Moreover, the “Apoptotic cells, in words” value in [3] (HL-60, 12 and 24 h, DOX 1 µM) is given as “induced apoptosis”. The “Apoptosis on cotreatment with pan-caspase inhibitor Z-VAD(OMe)-FMK, in words” value in [3] (HL-60, 2 h pre-treatment 50 µM Z-VAD(OMe)-FMK, then 24 h) is “led to apoptosis through caspases pathways”. For the same compound, the “Cell morphology, May-Grunwald-Giemsa staining” value in [4] is “presented changes associated with apoptosis”. Besides, in series [5], the “Reduction of the number of viable cells” value is on record as “reduced the number of viable cells”. For the same compound, the “Reduction of tumor weight” value in [6] is 62.0%. Besides, the “Mitochondrial transmembrane potential, in words” value in series [11] is recorded as “induced depolarization of mitochondrial transmembrane potential”.
